Assay results from article PMC8341974 (RSC Chemical Biology, 2021).

What was measured:
[1] = biological target: T1, SIRT3 (Homo sapiens, UniProt Q9NTG7); assay: biochemical; assay type: biochemical
T1 sequence (Q9NTG7 102-399): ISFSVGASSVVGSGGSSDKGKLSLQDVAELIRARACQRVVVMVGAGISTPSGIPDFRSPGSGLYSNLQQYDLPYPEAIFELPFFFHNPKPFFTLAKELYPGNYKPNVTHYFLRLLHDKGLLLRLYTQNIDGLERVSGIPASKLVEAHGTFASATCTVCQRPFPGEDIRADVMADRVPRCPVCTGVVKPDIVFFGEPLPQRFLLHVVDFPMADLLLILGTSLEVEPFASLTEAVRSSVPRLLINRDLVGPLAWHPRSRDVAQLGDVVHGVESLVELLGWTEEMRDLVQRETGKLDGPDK

[2] = Serum stability in human male serum; assay type: in vitro ADME; conditions: 37 °C, up to 24 h
[3] = biological target: T2, SIRT2 (Homo sapiens, UniProt Q8IXJ6); assay: biochemical; assay type: biochemical; conditions: for %inhibition SIRT2, QPKKac: 100 µM inhibitor, QPKKac 50 µM, NI = no inhibition
T2 sequence (Q8IXJ6 50-356): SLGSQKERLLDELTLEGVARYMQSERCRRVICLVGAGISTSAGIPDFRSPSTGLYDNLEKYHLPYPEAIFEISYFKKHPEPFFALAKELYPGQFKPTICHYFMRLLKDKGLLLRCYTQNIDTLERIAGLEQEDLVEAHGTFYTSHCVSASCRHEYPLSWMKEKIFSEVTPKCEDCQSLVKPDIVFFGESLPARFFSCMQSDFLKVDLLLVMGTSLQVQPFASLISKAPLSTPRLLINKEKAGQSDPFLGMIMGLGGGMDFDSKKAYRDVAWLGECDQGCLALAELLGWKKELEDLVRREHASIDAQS

[4] = biological target: T3, SIRT1 (Homo sapiens, UniProt Q96EB6); assay: End-point SIRT1 deacetylation inhibition assay; assay type: biochemical
T3 sequence (Q96EB6 193-741): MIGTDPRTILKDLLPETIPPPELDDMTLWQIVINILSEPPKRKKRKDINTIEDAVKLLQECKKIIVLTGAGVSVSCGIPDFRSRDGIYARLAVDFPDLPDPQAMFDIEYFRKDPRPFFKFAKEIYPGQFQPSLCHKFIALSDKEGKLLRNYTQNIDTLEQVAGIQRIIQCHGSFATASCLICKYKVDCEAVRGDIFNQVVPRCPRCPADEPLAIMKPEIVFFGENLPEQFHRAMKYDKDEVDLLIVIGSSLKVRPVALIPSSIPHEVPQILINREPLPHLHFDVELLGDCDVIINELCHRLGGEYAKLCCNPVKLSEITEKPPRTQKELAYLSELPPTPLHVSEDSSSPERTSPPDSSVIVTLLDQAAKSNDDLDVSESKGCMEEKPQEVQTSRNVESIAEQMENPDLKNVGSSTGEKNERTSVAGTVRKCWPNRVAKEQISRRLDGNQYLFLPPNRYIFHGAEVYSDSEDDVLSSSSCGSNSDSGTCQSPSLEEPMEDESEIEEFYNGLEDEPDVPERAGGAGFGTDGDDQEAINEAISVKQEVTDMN

[5] = biological target: SIRT6 (Homo sapiens, UniProt Q8N6T7); assay: End-point SIRT6 inhibition assay; assay type: biochemical; conditions: 10 µM inhibitor; SIRT6 600 nM; ETDKmyr 50 µM as substrate; NI = no inhibition
SIRT6, sequence (Q8N6T7 whole entry): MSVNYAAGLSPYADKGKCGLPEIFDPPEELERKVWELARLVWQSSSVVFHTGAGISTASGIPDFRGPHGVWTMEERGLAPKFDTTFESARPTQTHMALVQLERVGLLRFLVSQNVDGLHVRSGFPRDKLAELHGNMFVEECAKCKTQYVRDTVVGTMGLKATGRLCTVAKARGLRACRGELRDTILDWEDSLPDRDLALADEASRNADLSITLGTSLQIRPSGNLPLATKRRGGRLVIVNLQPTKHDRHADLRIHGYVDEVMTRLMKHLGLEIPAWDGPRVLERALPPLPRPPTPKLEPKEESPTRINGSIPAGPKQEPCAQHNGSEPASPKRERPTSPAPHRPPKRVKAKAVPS

[6] = biological target: T2, SIRT2; assay: Continuous trypsin-coupled SIRT2 inhibition assay; assay type: biochemical; conditions: from dependence of kobs on inhibitor concentration
[7] = test system: acetylated α-tubulin in MCF-7 cells; assay: Immunofluorescence of acetylated α-tubulin in MCF-7 cells; assay type: cell-based, human; conditions: MCF-7, 6 h; 26 5 μM, 26-D 25 μM, TSA 5 μM

## CN(C)CCCCC(=O)Nc1ccc(NC(=S)NC(=O)c2ccc(C(C)(C)C)cc2)cc1 [Tenovin-6, reference compound]
[1]; 100 µM inhibitor, QPKKac 50 µM, NI = no inhibition
  %inhibition SIRT3, QPKKac: <50% [100 μM]
[2]
  degradation in human serum (in words): rapidly degraded

## CCCCCCCCCCCCCC(=O)NNCCC[C@H](NC(=O)OCc1ccccc1)C(=O)N[C@@H](Cc1c[nH]c2ccccc12)C(=O)NC(C)C [Compound 4]
[3]
  %inhibition SIRT2, QPKKac: only limited inhibition

## CCCCCCCCCCCCNC(=S)NCCCC[C@H](NS(C)(=O)=O)C(=O)N[C@@H](C)C(=O)N[C@@H](CCCNC(=N)N)C(N)=O [Compound 25]
[4]
  IC50: 370 ± 70 nM
[3]; IC50 SIRT2, QPKKac, given as class word, QPKKac 50 μM, NAD+ 500 μM, SIRT2 100 nM
  IC50: < 100 nM
[1]
  IC50: 1900 ± 300 nM
[5]
  %-inhibition SIRT6: did not inhibit
[6]
  mechanism of slow-binding inhibition: mechanism B
[2]
  degradation in human serum (in words): almost fully degraded in less than two hours

## CC(/C=C/C(=O)NO)=C\[C@@H](C)C(=O)c1ccc(N(C)C)cc1 [TSA, Trichostatin A]
[7]
  acetylated α-tubulin level by immunofluorescence (in words): hyperacetylation of α-tubulin throughout the entire cell

## CCCCCCCCCCCCNC(=O)CCCCC[C@H](NC(=O)OCc1ccccc1)C(=O)N[C@@H](Cc1c[nH]c2ccccc12)C(=O)NC(C)C [Compound 5]
[3]
  %inhibition SIRT2, QPKKac: only limited inhibition
